Results from US12329158B2, “Large-scale methods of uniformly coating packaging surfaces with a volatile antimicrobial to preserve food freshness” (AGROFRESH INC., priority 2013, dated 2025).
Converted amounts (≈) assume the structure as drawn.

Legend:
[1] = system: Botrytis cinerea; test: Volatilization from treated clamshells onto inoculated agar plates (Example 2); format: cell-based
Protocol: An in vitro assay was used to evaluate the ability of Compound A to volatilize from a clamshell to control fungal pathogenic infection when applied to the clamshell by various application techniques. Multiple empty 1-lb PET clamshells (ProducePackaging.com, #036QT) were placed inside triplicate air-tight 36 L chamber (Fisher Scientific, Catalogue #08-642-23C) fitted with a bulkhead septum port (Swagelok, SS-401-61, Solon, OH).
Compound A headspace was permitted to equilibrate overnight at 21° C.
After spraying or painting, the clamshell was then permitted to dry for 5 minutes. After coating the clamshells with Compound A using various applications (i.e., sublimation, spraying, or painting), 10-cm Petri plates containing half strength Potato Dextrose Agar were inoculated with 1 μL of 1×10^5 spores/ml Botrytis cinerea spore suspension. The inoculated petri plates were then sealed with a breathable film (AeraSeal; P/N: B-100, Excel Scientific, Victorville, CA), and placed inside the treated clamshell.
(Series I). After incubation, plates were removed and cultures were evaluated for percent growth relative to a control based on measurement of fungal colony diameter (mm).
Meanwhile, freshly prepared inoculated plates were placed inside the clamshell for an additional three (3) days of incubation (Series 2). This process, where freshly prepared inoculated plates were placed inside the clamshell, was repeated twice more, to produce a 12 full day evaluation of 4 series of 3 days each.

[2] = system: Escherichia coli; test: In vitro volatile inhibition assay against bacteria (Example 8); format: cell-based; design: key: 0 = No colonies; 1 = Micro colonies not connected; 2 = Small colonies with some merging; 3 = Large colonies merging together; conditions: 5.00 mg per disk
Protocol: For testing activity against bacteria pathogens, 12-Well (7 mL volume per well) microtiter plates are used for the in vitro inhibition assay for volatile antimicrobial compounds. A 3-mL volume of full-strength LB Agar is added to each well. After cooling, 15 μL of Escherichia coli, adjusted to an optical density of 0.02 to 0.035, and further diluted 1/10 is pipetted to the center of the agar and tilted to distribute uniformly. Small Whatman #1 filter disks (Cat. No. 1001-0155) are placed, in duplicate, on the underside of a polyethylene polymerase chain reaction (PCR) plate sealing film. For determination of the minimum inhibitory concentration (MIC), Compound A is diluted in acetone, and 5 mg of compound is added to the disks. The acetone is permitted to evaporate for 5 minutes. The headspace around the Escherichia coli inoculum is then sealed inside the well by the film with the adhering disk containing the fungicide. Plates are inverted, placed over the treated disks and sealed to prevent any of the chemical from flaking from the disk and falling onto the inoculated agar. After 3 days of storage at 4° C., cultures are transferred to 23° C. for an additional 2 days, and then evaluated for colony growth relative to control.

[3] = system: Alternaria alternata; test: Volatile MIC assay (Example 9); format: cell-based; conditions: 72 h, headspace concentration, 3 days at 23 C, read-out: MIC (mg/L) ALTEAL
Protocol: (§1) A 3-mL volume of full-strength Potato Dextrose Agar (PDA) is added to each well. […] Plates are inoculated immediately prior to volatile fungicide treatment. A Whatman #1 filter disk (Cat. No. 1001-0155) is placed, in duplicate, on the underside of a polyethylene PCR plate sealing film. […] The acetone is permitted to evaporate for 5 minutes. The headspace around the inoculum is then sealed inside the well by the film with the adhering disk containing the fungicide by inverting the plates over the treated disks and sealing to prevent any of the chemical from flaking from the disk and falling onto the inoculated agar.

[4] = system: Botrytis cinerea; test: Volatile MIC assay (Example 9); format: cell-based; conditions: 72 h, headspace concentration, 3 days at 23 C, read-out: MIC (mg/L) BOTRCI
Protocol: as §1

[5] = system: Glomerella cingulata; test: Volatile MIC assay (Example 9); format: cell-based; conditions: Colletotrichum gloeosporioides, 72 h, headspace concentration, 3 days at 23 C, read-out: MIC (mg/L) GLOMCI
Protocol: as §1

[6] = system: Monilinia fructicola; test: Volatile MIC assay (Example 9); format: cell-based; conditions: 72 h, headspace concentration, 3 days at 23 C, read-out: MIC (mg/L) MONIFC
Protocol: as §1

[7] = system: Penicillium expansum; test: Volatile MIC assay (Example 9); format: cell-based; conditions: 72 h, headspace concentration, 3 days at 23 C, read-out: MIC (mg/L) PENIEX
Protocol: as §1

[8] = system: Penicillium expansum; test: Blue mold on apple, contact assay; format: in vivo
Protocol: Contact Assay: […] A 250 mL solution of each concentration is used to dip two inoculated apples, one minute per apple, performed in triplicate per rate. The dipped fruits are then placed back into the […] are then placed in a secondary container and incubated at 1° C. for 5 days. After incubation, fruits are evaluated for diameter (mm) of rot development (browning) up to 7 days at 21° C.

[9] = Solubility in methanol (remark in Example 25); format: physicochemical; conditions: room temperature

OB1OCc2cc(F)ccc21 [Compound A, 5-fluoro-1,3-dihydro-1-hydroxy-2,1-benzoxaborole]
Mycelial Growth Inhibition (%) ([1]; Paint, 0.2 mg/clamshell, Series 1 (0 to 3 days)): 3.4%
Mycelial Growth Inhibition (%) ([1]; Paint, 1 mg/clamshell, Series 1 (0 to 3 days)): 100.0%
Mycelial Growth Inhibition (%) ([1]; Paint, 1 mg/clamshell, Series 2 (3 to 6 days)): 18.8%
Mycelial Growth Inhibition (%) ([1]; Paint, 5 mg/clamshell, Series 1 (0 to 3 days)): 100.0%
Mycelial Growth Inhibition (%) ([1]; Paint, 5 mg/clamshell, Series 2 (3 to 6 days)): 100.0%
Mycelial Growth Inhibition (%) ([1]; Paint, 5 mg/clamshell, Series 3 (6 to 9 days)): 57.5%
Mycelial Growth Inhibition (%) ([1]; Paint, 5 mg/clamshell, Series 4 (9 to 12 days)): 44.7%
Mycelial Growth Inhibition (%) ([1]; Spray, 0.2 mg/clamshell, Series 1 (0 to 3 days)): 81.2%
Mycelial Growth Inhibition (%) ([1]; Spray, 1 mg/clamshell, Series 1 (0 to 3 days)): 100.0%
Mycelial Growth Inhibition (%) ([1]; Spray, 1 mg/clamshell, Series 2 (3 to 6 days)): 18.6%
Mycelial Growth Inhibition (%) ([1]; Spray, 1 mg/clamshell, Series 3 (6 to 9 days)): 0.0%
Mycelial Growth Inhibition (%) ([1]; Spray, 5 mg/clamshell, Series 1 (0 to 3 days)): 100.0%
Mycelial Growth Inhibition (%) ([1]; Spray, 5 mg/clamshell, Series 2 (3 to 6 days)): 100.0%
Mycelial Growth Inhibition (%) ([1]; Spray, 5 mg/clamshell, Series 3 (6 to 9 days)): 61.2%
Mycelial Growth Inhibition (%) ([1]; Spray, 5 mg/clamshell, Series 4 (9 to 12 days)): 64.9%
Mycelial Growth Inhibition (%) ([1]; Sublimation, 0.2 mg/clamshell, Series 1 (0 to 3 days)): 90.9%
Mycelial Growth Inhibition (%) ([1]; Sublimation, 0.2 mg/clamshell, Series 3 (6 to 9 days)): 0.0%
Mycelial Growth Inhibition (%) ([1]; Sublimation, 1 mg/clamshell, Series 1 (0 to 3 days)): 90.1%
Mycelial Growth Inhibition (%) ([1]; Sublimation, 5 mg/clamshell, Series 1 (0 to 3 days)): 100.0%
Mycelial Growth Inhibition (%) ([1]; Sublimation, 5 mg/clamshell, Series 2 (3 to 6 days)): 100.0%
Mycelial Growth Inhibition (%) ([1]; Sublimation, 5 mg/clamshell, Series 3 (6 to 9 days)): 83.1%
Mycelial Growth Inhibition (%) ([1]; Sublimation, 5 mg/clamshell, Series 4 (9 to 12 days)): 84.4%
Colony Rating [2]: 1
MIC [3]: < 0.6 mg/L
MIC [4]: 2.2 mg/L (≈ 14.5 µM)
MIC [5]: < 0.6 mg/L
MIC [6]: < 0.6 mg/L
MIC [7]: 2.2 mg/L (≈ 14.5 µM)
Browning Rot (diameter; mm) ([8]; 2 mg/L, Day 0): 0.0 mm
Browning Rot (diameter; mm) ([8]; 2 mg/L, Day 2): 3.7 mm
Browning Rot (diameter; mm) ([8]; 2 mg/L, Day 4): 15.5 mm
Browning Rot (diameter; mm) ([8]; 2 mg/L, Day 7): 23.3 mm
Browning Rot (diameter; mm) ([8]; 10 mg/L, Day 0): 0.0 mm
Browning Rot (diameter; mm) ([8]; 10 mg/L, Day 2): 2.2 mm
Browning Rot (diameter; mm) ([8]; 10 mg/L, Day 4): 8.0 mm
Browning Rot (diameter; mm) ([8]; 10 mg/L, Day 7): 20.2 mm
Browning Rot (diameter; mm) ([8]; 50 mg/L, Day 0): 0.0 mm
Browning Rot (diameter; mm) ([8]; 50 mg/L, Day 2): 0.7 mm
Browning Rot (diameter; mm) ([8]; 50 mg/L, Day 4): 5.7 mm
Browning Rot (diameter; mm) ([8]; 50 mg/L, Day 7): 15.0 mm
Browning Rot (diameter; mm) ([8]; 250 mg/L, Day 0): 0.0 mm
Browning Rot (diameter; mm) ([8]; 250 mg/L, Day 2): 0.0 mm
Browning Rot (diameter; mm) ([8]; 250 mg/L, Day 4): 4.3 mm
Browning Rot (diameter; mm) ([8]; 250 mg/L, Day 7): 11.8 mm
Solubility in methanol (in words) [9]: not soluble in methanol at room temperature
